Key:
Type in all cases: physicochemical
[1] = Example 3: 1-MCP headspace release versus wt-% 1-MCP/c/α-CD in UV-cured coating; details: 2.5 cm x 10 cm, 250 mL bottle, 20 μL water, 24 hours
Protocol: A 20 mL bottle was charged with 9.6 g of UV Coating VP 10169/60 MF-2NE (obtained from Verga GmbH of Aschau am Inn, Germany). Then 0.4 g of 1-MCP/α-cyclodextrin complex (4.7% 1-MCP obtained from AgroFresh of Spring House, Pa.) termed “1-MCP/c/α-CD” was added to the bottle. The bottle was then firmly capped and shaken by hand by hand until the blends appear uniformly dispersed, resulting in a 4.0 wt-% 1-MCP/c/α-CD blend. Three additional blends containing 2.0 wt-%, 1.0 wt-% and 0.5 wt-% of 1-MCP/c/α-CD were prepared in the same manner.
A rubber ink roller was used to deliver a thin (nominally 0.3 μm) coating to a 20 cm by 20 cm polyethylene extrusion coated paper sheet using the technique of Example 2.
Using razor blade, 2.5 cm×10 cm rectangles were cut from the coated portion of each of the sheets. Then the coated rectangular sheets were cured using the procedure of Example 2. Each cured, coated rectangle was placed in a 250 mL serum bottle. The bottle was then sealed with TEFLON® faced silicone septa. Then 20 μL of deionized water was injected into each bottle. […] Headspace was analyzed for 1-MCP 24 hours after the injection of water, using the technique employed in Example 2, and employing the 6-point 1-butene calibration curve as described in Example 2. Table 2 and FIG. 2 give the 24-hour average 1-MCP headspace concentration and standard deviation for each of the coated and cured rectangular sheets.

[2] = Example 7: 1-MCP permeation through polyethylene film from PSA label into 1,000 mL headspace; details: 11 cm diameter PSA label on 25 μm PE film, 1,000 mL kettle
From the text: This method is designed to measure the permeability of 1-MCP through polyethylene film into a confined, fixed volume headspace following release from a PSA label adhered to the surface of the film defining the fixed volume. The methodology simulates the headspace of a flexible film package having initially low relative humidity, wherein a PSA label containing 1-MCP is adhered to the outside of the package. As the humidity rises inside the package by respiration of fresh agricultural products, the water vapor increases in concentration and it diffuses through the package film to the outside environment but also into the PSA. Thus, as the water vapor diffuses through the film into the 1-MCP adhesive label adhered to the outside of the package film; 1-MCP released from the label adhesive into the fixed volume (headspace) was measured.
A coated, cured labelstock sheet made according to the procedure of Example 6 was cut by hand into an 11 cm diameter circle. Next the PET liner was removed from the label and the label was adhered via the PSA to a 13.5 cm diameter, 1 mil (25 μm) thick polyethylene (PE) film (obtained from the Pliant Corporation of Schaumburg, Ill.). The paper side of this structure was then covered with aluminum foil. The foil/paper/PSA/PE layered structure was mounted onto the open end of a 1,000 mL glass reaction kettle bottom (6947-1LBO, from Corning Glass of Corning, N.Y.) and sealed to the kettle's glass flange using aluminum sealing rings. The layered structure was oriented over the 11 cm opening with the PE film facing in and the aluminum facing out. The glass reaction kettle was modified with a silicone septum port to allow sampling of the 1,000 mL headspace. Headspace analysis was conducted by removing 250 μL of headspace volume from the 1,000 mL glass kettle and analyzing according to the technique of Example 3.
Then 200 μL of water was added through the septum port to the inside of the glass kettle. The headspace was analyzed for 1-MCP at 17, 25 and 90 hours after the injection of water using the technique employed in Example 3. At 17 hours, 25 hours, and 90 hours after injection of the water, the 1-MCP headspace concentration was 3.6 ppm, 7.0 ppm and 8.0 ppm of 1-MCP, respectively.

[3] = Example 8: 1-MCP headspace release from cured coating with varying amounts of liquid water; details: 4.0 wt-% 1-MCP/c/α-CD coating, 5 cm x 10 cm, 250 mL bottle
From the text: A 4.0 wt-% 1-MCP/c/α-CD coating blend was made according to the technique of Example 3. A 20 cm by 20 cm polyethylene extrusion coated paper sheet was coated with the mixture using the technique of Example 2. A paper cutter was used to cut nine, 5 cm by 10 cm rectangles from the sheet. The cut, coated rectangles were passed by hand about 10 cm beneath a medium pressure mercury arc lamp operating at 79 watts per cm. After 1.5 seconds exposure to the lamp, the sample was removed. The cured sample was allowed to sit on a laboratory bench overnight coating side down.
Each cured sample was placed in a 250 mL serum bottle. Each bottle was sealed with a TEFLON® faced silicone septum. The amount of liquid water that would, in vapor form, correspond to 100% relative humidity (RH) at 20° C. (provided at http://hyperphysics.phy-astr.gsu.edu/hbase/kinetic/vappre.html#c) is 17.3 g/m^3, or 17.3 g per 1000 L. The density of water at 20° C. is 0.9982 g/mL. Thus, at 20° C., 4.3 μL, of liquid water added to an enclosed volume of 250 mL and containing no other water will vaporize to give 100% RH. Our laboratory facility temperature was 20° C.±5° C.
Three of the bottles were injected with 10 μL, of deionized water, three with 20 μL of deionized water, and three with 50 μL of deionized water. […] The headspace of each bottle was analyzed for 1-MCP at 2 hours, 4 hours, 8 hours, 24 hours, and 48 hours after the injection of water, wherein the headspace analysis was conducted using the analytical technique employed in Example 3.

CC1=CC1 [1-MCP, 1-methylcyclopropene]
Headspace concentration of 1-MCP, Ave. ([1]; 0.5 wt-% 1-MCP/c/α-CD coating): 0.09 ppm (v/v) | Headspace concentration of 1-MCP, Ave. ([1]; 1 wt-% 1-MCP/c/α-CD coating): 0.20 ppm (v/v) | Headspace concentration of 1-MCP, Ave. ([1]; 2 wt-% 1-MCP/c/α-CD coating): 0.56 ppm (v/v) | Headspace concentration of 1-MCP, Ave. ([1]; 4 wt-% 1-MCP/c/α-CD coating): 1.1 ppm (v/v) | 1-MCP headspace concentration ([2]; 200 μL water, 17 hours): 3.6 ppm | 1-MCP headspace concentration ([2]; 200 μL water, 25 hours): 7.0 ppm | 1-MCP headspace concentration ([2]; 200 μL water, 90 hours): 8.0 ppm | 1-MCP headspace concentration ([2]; no added water, two hours): < 0.01 ppm | Headspace concentration of 1-MCP, average ([3]; 10 μL H2O, 2 hr): 1.3 ppm (v/v) | Headspace concentration of 1-MCP, average ([3]; 10 μL H2O, 4 hr): 2.5 ppm (v/v) | Headspace concentration of 1-MCP, average ([3]; 10 μL H2O, 8 hr): 3.8 ppm (v/v) | Headspace concentration of 1-MCP, average ([3]; 10 μL H2O, 24 hr): 7.1 ppm (v/v) | Headspace concentration of 1-MCP, average ([3]; 10 μL H2O, 48 hr): 10.0 ppm (v/v) | Headspace concentration of 1-MCP, average ([3]; 20 μL H2O, 2 hr): 2.6 ppm (v/v) | Headspace concentration of 1-MCP, average ([3]; 20 μL H2O, 4 hr): 5.8 ppm (v/v) | Headspace concentration of 1-MCP, average ([3]; 20 μL H2O, 8 hr): 9.2 ppm (v/v) | Headspace concentration of 1-MCP, average ([3]; 20 μL H2O, 24 hr): 15.7 ppm (v/v) | Headspace concentration of 1-MCP, average ([3]; 20 μL H2O, 48 hr): 20.5 ppm (v/v) | Headspace concentration of 1-MCP, average ([3]; 50 μL H2O, 2 hr): 8.7 ppm (v/v) | Headspace concentration of 1-MCP, average ([3]; 50 μL H2O, 4 hr): 18.6 ppm (v/v) | Headspace concentration of 1-MCP, average ([3]; 50 μL H2O, 8 hr): 30.8 ppm (v/v) | Headspace concentration of 1-MCP, average ([3]; 50 μL H2O, 24 hr): 55.3 ppm (v/v) | Headspace concentration of 1-MCP, average ([3]; 50 μL H2O, 48 hr): 63.0 ppm (v/v)

Source: patent US8414989B2, “Cyclodextrin compositions, articles, and methods” (Cellresin Technologies, LLC, priority 2011, dated 2013)
